Results from patent publication US10005824B2, “Selective PYY compounds and uses thereof” (Novo Nordisk A/S, priority 2015, dated 2018).

Tests used:
[1] = biological target: T1, human Y1 receptor (Homo sapiens, UniProt P25929); assay: Scintillation proximity assay (SPA) receptor binding, Y1
T1 construct: expressed in transfected cells; host or cells: BHK-21 clone 6-482-8, IPTG-induced (membrane preparation)
T1 sequence (P25929 1-384): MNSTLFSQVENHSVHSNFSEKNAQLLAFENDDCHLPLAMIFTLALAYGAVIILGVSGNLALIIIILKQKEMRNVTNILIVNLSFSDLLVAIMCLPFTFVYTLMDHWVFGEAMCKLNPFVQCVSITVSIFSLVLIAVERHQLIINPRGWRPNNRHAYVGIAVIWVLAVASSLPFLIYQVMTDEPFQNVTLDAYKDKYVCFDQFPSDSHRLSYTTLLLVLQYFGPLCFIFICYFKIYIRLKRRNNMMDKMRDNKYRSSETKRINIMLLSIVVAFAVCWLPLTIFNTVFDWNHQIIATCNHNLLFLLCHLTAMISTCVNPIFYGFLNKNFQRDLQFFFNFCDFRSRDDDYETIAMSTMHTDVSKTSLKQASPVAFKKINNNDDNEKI
Experimental: (§1) The purpose of this example is to test the in vitro binding of the PYY compounds to the Y1, Y2, Y4 and Y5 receptor subtypes, respectively. The receptor binding affinity is a measure of affinity of a compound for the human Y1, Y2, Y4 and Y5 receptor subtypes, respectively.
(§2) Scintillation Proximity Assay (SPA)
(§3) NPY-Receptor Expressing Cell Lines.
(§4) All cells were cultured at +37° C. in a humidified atmosphere with 5% CO2. […] CHO-K1 cells stably expressing the human Y2 receptor (P49146, NPY2R_HUMAN, Uniprot) were cultured in DMEM F-12 with 10% FBS, 1% P/S, 150 μg/ml Hygromycin B and 10 μg/ml Puromycin antibiotic. CHO-K1 cells stably expressing the human Y4 receptor (P50391, NPY4R_HUMAN, Uniprot) were cultured in DMEM F-12 with 10% FBS, 1% P/S, 10 μg/ml Puromycin. HEK-293 cells stably expressing the human Y5 receptor (Q15761, NPY5R_HUMAN, Uniprot) were cultured in DMEM F-12 medium containing 10% FBS, 1% Penicillin-Streptomycin, 250 μg/ml G418 and 1 μg/ml puromycin.
The homogenate was centrifuged at 35000 g using an ultracentrifuge for 10 minutes at +4° C. and the supernatant was discarded and fresh homogenization buffer added. Homogenization of the pellet was repeated a total of three times.
Human Y receptor SPA binding assay were performed in white 96-well plates in a total volume of 200 μl per well.
(§5) Plates were sealed and incubated at +25° C. for 2 hours in a plate shaker set at 400 rpm and thereafter centrifuged at 1500 rpm for 10 minutes prior to reading of luminescence on a microplate scintillation and luminescence counter. […] Displacement of radioligand was measured as reduction in luminescence and IC50 values were calculated by nonlinear regression analysis of sigmoidal dose-response curves.

[2] = biological target: T2, human Y5 receptor (Homo sapiens, UniProt Q15761); assay: Scintillation proximity assay (SPA) receptor binding, Y5; conditions: membranes of HEK-293 cells, [125I]-PYY(1-36)
T2 construct: expressed in transfected cells; host or cells: HEK-293 (membrane preparation)
T2 sequence (Q15761 1-445): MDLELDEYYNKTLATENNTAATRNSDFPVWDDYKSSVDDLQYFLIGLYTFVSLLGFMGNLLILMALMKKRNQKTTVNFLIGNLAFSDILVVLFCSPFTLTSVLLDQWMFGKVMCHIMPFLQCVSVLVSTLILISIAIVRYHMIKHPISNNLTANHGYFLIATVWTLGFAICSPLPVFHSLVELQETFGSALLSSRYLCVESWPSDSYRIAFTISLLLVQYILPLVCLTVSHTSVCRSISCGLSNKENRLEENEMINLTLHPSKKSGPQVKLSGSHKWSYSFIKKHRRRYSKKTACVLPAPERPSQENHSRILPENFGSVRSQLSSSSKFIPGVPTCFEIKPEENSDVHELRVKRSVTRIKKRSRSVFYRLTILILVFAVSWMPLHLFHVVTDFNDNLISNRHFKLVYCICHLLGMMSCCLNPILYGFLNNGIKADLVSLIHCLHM
Experimental: as §1, §2, §3
as §4, with “puromycin. […]” for “puromycin.”
as §5

[3] = biological target: T3, human NPY Y2 receptor (Homo sapiens, UniProt P49146); assay: Actone functional potency assay (Y2 in vitro potency, whole cell); format: cell-based
T3 construct: host or cells: HEK-293 cells that also express a cAMP-sensitive calcium channel
T3 sequence (P49146 1-381): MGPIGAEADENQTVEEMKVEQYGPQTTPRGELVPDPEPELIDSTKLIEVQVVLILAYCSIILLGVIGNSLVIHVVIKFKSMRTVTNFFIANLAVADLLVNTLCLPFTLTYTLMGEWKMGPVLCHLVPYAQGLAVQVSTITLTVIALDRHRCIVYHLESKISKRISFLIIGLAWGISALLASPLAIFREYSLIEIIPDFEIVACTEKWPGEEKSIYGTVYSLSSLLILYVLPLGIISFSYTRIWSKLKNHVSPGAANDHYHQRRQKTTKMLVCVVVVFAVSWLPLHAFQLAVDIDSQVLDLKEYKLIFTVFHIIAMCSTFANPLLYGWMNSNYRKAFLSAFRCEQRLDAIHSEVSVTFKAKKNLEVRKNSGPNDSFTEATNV
Description: The purpose of this example is to test the activity, or potency, of the PYY compounds in vitro. The Y2 in vitro potency is the measure of the activation of the human Y2 receptor subtype in a whole cell assay.
Actone Functional Potency Assay
The Neuropeptide Y (NPY) receptors are Gi-coupled seven trans-membrane receptors that mainly signal through the cAMP dependent pathway by inhibiting adenylate cyclase activity which results in a decrease of cAMP production from ATP. The Actone assay is based on a modified calcium channel that has a selective binding for cAMP, resulting in cellular calcium influx, detected by a calcium responsive dye. In order to measure decreased levels of cAMP, as result of NPY receptor activation, the β1/β2-adrenoreceptor agonist, isoproterenol, is added to activate adenylate cyclase and increases cAMP levels in the cell. Decreased cellular calcium concentrations, reflecting a decrease of cAMP levels due to NPY receptor activation, is detected as a decrease in fluorescence from the calcium sensitive dye.

With `CC(C)CC(=O)N[C@@H](CCCNC(=N)N)C(=O)N1CCC[C@H]1C(=O)N[C@@H](CCC(=O)O)C(=O)N[C@@H](C)C(=O)N1CCC[C@H]1C(=O)NCC(=O)N[C@@H](CCCCNC(=O)CC[C@H](NC(=O)COCCOCCNC(=O)CC[C@H](NC(=O)CCCCCCCCCCCCCCCCC(=O)O)C(=O)O)C(=O)O)C(=O)N[C@@H](CC(=O)O)C(=O)N[C@@H](C)C(=O)N[C@@H](CO)C(=O)N1CCC[C@H]1C(=O)N[C@@H](CCC(=O)O)C(=O)N[C@@H](CCC(=O)O)C(=O)N[C@@H](CC(C)C)C(=O)N[C@@H](CCC(N)=O)C(=O)N[C@@H](CCCNC(=N)N)C(=O)N[C@@H](Cc1ccc(O)cc1)C(=O)N[C@@H](Cc1ccc(O)cc1)C(=O)N[C@@H](C)C(=O)N[C@@H](CO)C(=O)N[C@@H](CC(C)C)C(=O)N[C@@H](CCCNC(=N)N)C(=O)N[C@@H](Cc1c[nH]cn1)C(=O)N[C@@H](Cc1ccc(O)cc1)C(=O)N[C@@H](Cc1ccc(O)cc1)C(=O)N[C@@H](CC(N)=O)C(=O)N[C@@H](Cc1c[nH]c2ccccc12)C(=O)N[C@@H](CC(C)C)C(=O)N[C@H](C(=O)N[C@@H](CCCNC(=N)N)C(=O)N[C@@H](CCC(N)=O)C(=O)N[C@@H](CCCNC(=N)N)C(=O)N[C@@H](Cc1ccc(O)cc1)C(N)=O)[C@@H](C)O` [Compound 59, N{alpha-4}-(3-Methylbutanoyl)-N{Epsilon-10}-[(4S)-4-carboxy-4-[[2-[2-[2-[[(4S)-4-carboxy-4-(17-carboxyheptadecanoylamino)butanoyl]amino]ethoxy]ethoxy]-acetyl]amino]butanoyl]-[Arg4,Lys10,Gln18,Tyr28,Trp30,Leu31]-PYY-(4-36)] the Ki [1] was over 10000 nM and the Ki [2] was 279 nM.

For `CC(C)CC(=O)N[C@@H](CCCNC(=N)N)C(=O)N1CCC[C@H]1C(=O)N[C@@H](CCC(=O)O)C(=O)N[C@@H](C)C(=O)N1CCC[C@H]1C(=O)N1CCC[C@H]1C(=O)N[C@@H](CCCCNC(=O)CC[C@H](NC(=O)COCCOCCNC(=O)CC[C@H](NC(=O)CCCCCCCCCCCCCCCCC(=O)O)C(=O)O)C(=O)O)C(=O)N[C@@H](CC(=O)O)C(=O)N[C@@H](C)C(=O)N[C@@H](CO)C(=O)N1CCC[C@H]1C(=O)N[C@@H](CCC(=O)O)C(=O)N[C@@H](CCC(=O)O)C(=O)N[C@@H](CC(C)C)C(=O)N[C@@H](CCC(N)=O)C(=O)N[C@@H](CCCNC(=N)N)C(=O)N[C@@H](Cc1ccc(O)cc1)C(=O)N[C@@H](Cc1ccc(O)cc1)C(=O)N[C@@H](C)C(=O)N[C@@H](CO)C(=O)N[C@@H](CC(C)C)C(=O)N[C@@H](CCCNC(=N)N)C(=O)N[C@@H](Cc1c[nH]cn1)C(=O)N[C@@H](Cc1ccc(O)cc1)C(=O)N[C@@H](Cc1ccc(O)cc1)C(=O)N[C@@H](CC(N)=O)C(=O)N[C@@H](Cc1c[nH]c2ccccc12)C(=O)N[C@@H](CC(C)C)C(=O)N[C@H](C(=O)N[C@@H](CCCNC(=N)N)C(=O)N[C@@H](CCC(N)=O)C(=O)N[C@@H](CCCNC(=N)N)C(=O)N[C@@H](Cc1ccc(O)cc1)C(N)=O)[C@@H](C)O` [Compound 56, N{alpha-4}-(3-Methylbutanoyl)-N{Epsilon-10}-[(4S)-4-carboxy-4-[[2-[2-[2-[[(4S)-4-carboxy-4-(17-carboxyheptadecanoylamino)butanoyl]amino]ethoxy]ethoxy]-acetyl]amino]butanoyl]-[Arg4,Pro9,Lys10,Gln18,Tyr28,Trp30,Leu31]-PYY(4-36)], the Ki [1] was over 10000 nM and the Ki [2] was 279 nM.

For `CC(C)CC(=O)N[C@@H](CCCNC(=N)N)C(=O)N1CCC[C@H]1C(=O)N[C@@H](CCC(=O)O)C(=O)N[C@@H](C)C(=O)N1CCC[C@H]1C(=O)NCC(=O)N[C@@H](CCCCNC(=O)CC[C@H](NC(=O)COCCOCCNC(=O)CC[C@H](NC(=O)CCCCCCCCCCCCCCCCC(=O)O)C(=O)O)C(=O)O)C(=O)N[C@@H](CC(=O)O)C(=O)N[C@@H](C)C(=O)N[C@@H](CO)C(=O)N1CCC[C@H]1C(=O)N[C@@H](CCC(=O)O)C(=O)N[C@@H](CCC(=O)O)C(=O)N[C@@H](CC(C)C)C(=O)N[C@@H](CCC(N)=O)C(=O)N[C@@H](CCCNC(=N)N)C(=O)N[C@@H](Cc1ccc(O)cc1)C(=O)N[C@@H](Cc1ccc(O)cc1)C(=O)N[C@@H](C)C(=O)N[C@@H](CCC(=O)O)C(=O)N[C@@H](CC(C)C)C(=O)N[C@@H](CCCNC(=N)N)C(=O)N[C@@H](Cc1c[nH]cn1)C(=O)N[C@@H](Cc1ccc(O)cc1)C(=O)N[C@@H](Cc1ccc(O)cc1)C(=O)N[C@@H](CC(N)=O)C(=O)N[C@@H](Cc1c[nH]c2ccccc12)C(=O)N[C@@H](CC(C)C)C(=O)N[C@H](C(=O)N[C@@H](CCCNC(=N)N)C(=O)N[C@@H](CCC(N)=O)C(=O)N[C@@H](CCCNC(=N)N)C(=O)N[C@@H](Cc1ccc(O)cc1)C(N)=O)[C@@H](C)O` [Compound 53, N{alpha-4}-(3-Methylbutanoyl)-N{Epsilon-10}-[(4S)-4-carboxy-4-[[2-[2-[2-[[(4S)-4-carboxy-4-(17-carboxyheptadecanoylamino)butanoyl]amino]ethoxy]ethoxy]-acetyl]amino]butanoyl]-[Arg4,Lys10,Gln18,Glu23,Tyr28,Trp30,Leu31]-PYY(4-36)], the EC50 [3] was 0.77 nM and the Ki [1] was over 10000 nM.
